Patent US20250223306A1, “TEAD INHIBITORS AND METHODS OF USE” (Sporos BioDiscovery, Inc., priority 2022, published 2025)

Experiments:
TEAD2 = TEAD2 (Homo sapiens, UniProt Q15562); test: TEAD thermal shift assay (TSA); type: binding
Source text: (§1) Thermal shift assay (TSA) is a biophysical method to evaluate stability of proteins with change in temperature. The assay measures thermal denaturation temperature in varying conditions such as different drug concentration. For this example, fluorogenic dye was used that bind to unfolded proteins. SYPRO Orange binds non-specifically to hydrophobic surfaces, and water strongly quenches its fluorescence. When the protein unfolds, the exposed hydrophobic surfaces bind the dye, resulting in an increase in fluorescence by excluding water. Detergent micelles also bind the dye and increase background noise dramatically. Binding of small molecules to proteins leads to a stabilization against to thermal denaturation with the degree of thermal stabilization proportional to the strength of binding.
(§2) The study described in this example investigated the change in melting temperature (ΔTm) of TEAD isoforms 1˜4 when treated with TEAD inhibitors. Compound 1-1-a known strong TEAD1 and weak TEAD2 inhibitor; as well as Compound 1-4-a pan-TEAD inhibitor were used as controls.
(§3) Tris-HCL was dissolved in 5 mL of Cell culture grade water and allowed to dissolve completely. The pH was adjusted to 8 using NaOH. Additional assay buffer components were added in the order listed above. The buffer was mixed slowly.
(§4) Assay buffer was prepared according to the procedures outlined above and dispensed into test wells. Spyro orange was added to a concentration of 5× in the assay buffer, followed by test compound stock solution which was added to a concentration of 10 μM or 30 μM in the assay buffer.
(§5) The melt cycle was performed in Bio-RAD PCR instrument from 20-95° C. with ramp rate of 1° C./min.

TEAD1 = TEAD1 (Homo sapiens, UniProt P28347); test: TEAD thermal shift assay (TSA); type: binding
Chain of TEAD1 (P28347 whole entry): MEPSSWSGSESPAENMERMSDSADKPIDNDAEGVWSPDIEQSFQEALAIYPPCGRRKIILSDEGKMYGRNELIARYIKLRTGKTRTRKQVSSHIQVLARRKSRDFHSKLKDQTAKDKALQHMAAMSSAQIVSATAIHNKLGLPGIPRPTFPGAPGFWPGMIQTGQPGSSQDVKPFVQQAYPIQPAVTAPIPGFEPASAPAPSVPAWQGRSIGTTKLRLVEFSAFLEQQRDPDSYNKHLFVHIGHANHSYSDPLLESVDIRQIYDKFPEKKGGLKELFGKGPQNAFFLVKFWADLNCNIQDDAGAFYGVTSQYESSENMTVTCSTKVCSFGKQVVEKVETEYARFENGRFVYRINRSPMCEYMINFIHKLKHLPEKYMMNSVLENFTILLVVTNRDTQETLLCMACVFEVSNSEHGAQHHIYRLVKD
Source text: as §1, §2, §3, §4, §5

TEAD3 = TEAD3 (Homo sapiens, UniProt Q99594); test: TEAD thermal shift assay (TSA); type: binding
Chain of TEAD3 (Q99594 whole entry): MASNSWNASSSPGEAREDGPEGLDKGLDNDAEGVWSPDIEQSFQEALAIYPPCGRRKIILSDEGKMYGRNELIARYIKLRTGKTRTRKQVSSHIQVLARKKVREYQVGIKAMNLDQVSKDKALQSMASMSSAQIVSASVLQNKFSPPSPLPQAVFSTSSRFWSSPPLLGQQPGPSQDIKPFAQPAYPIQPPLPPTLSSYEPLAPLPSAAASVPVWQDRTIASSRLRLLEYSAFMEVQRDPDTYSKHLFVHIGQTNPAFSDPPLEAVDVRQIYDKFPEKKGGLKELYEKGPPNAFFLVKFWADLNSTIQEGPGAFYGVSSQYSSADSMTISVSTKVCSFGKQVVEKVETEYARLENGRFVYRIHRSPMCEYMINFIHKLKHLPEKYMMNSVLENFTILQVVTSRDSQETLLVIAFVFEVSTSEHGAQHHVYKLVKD
Source text: as §1, §2, §3, §4, §5

TEAD4 = TEAD4 (Homo sapiens, UniProt Q15561); test: TEAD thermal shift assay (TSA); type: binding
Chain of TEAD4 (Q15561 whole entry): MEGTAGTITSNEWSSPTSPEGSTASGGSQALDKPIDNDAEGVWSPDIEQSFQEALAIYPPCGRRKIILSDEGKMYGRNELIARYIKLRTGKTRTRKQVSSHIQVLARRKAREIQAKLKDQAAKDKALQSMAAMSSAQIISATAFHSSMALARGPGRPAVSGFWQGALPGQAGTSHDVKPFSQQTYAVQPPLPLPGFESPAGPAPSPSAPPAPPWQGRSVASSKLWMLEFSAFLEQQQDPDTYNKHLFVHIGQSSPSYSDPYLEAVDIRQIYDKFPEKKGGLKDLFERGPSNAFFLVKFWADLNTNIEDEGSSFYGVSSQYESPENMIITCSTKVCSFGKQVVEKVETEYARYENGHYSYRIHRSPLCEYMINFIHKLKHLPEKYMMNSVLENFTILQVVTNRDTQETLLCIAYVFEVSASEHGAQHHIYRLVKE
Source text: as §1, §2, §3, §4, §5

LOU-NH91 cells = test: LOU-NH91 proliferation and cell viability assay (CTG); type: cell-based; settings: LOU-NH91 cell line, 216 hours
Protocol: LOU-NH91 cells were trypsinised, counted and plated at the specified cell density in 200 μl of growth media in 96 well flat bottom tissue culture treated plates. The plated cells were incubated overnight at 37° C., 5% CO2 before being treated with compounds in triplicate for each assay point. 50 μl of the serially diluted compound was added to each well giving a final DMSO concentration of 0.5% per well and a total volume of 250 μl per well. The treated cells were incubated for 216 hours (9 days) at 37° C., 5% CO2. Following compound treatment, the remaining viable cells were detected using the Promega CellTiter-Glo 2.0 assay as follows: 150 μl of media was removed from each of the wells to be assayed and 100 μl of room temperature CellTiter-Glo 2.0 reagent was added. The plate was placed on an orbital shaker at 500 rpm at room temperature for 2 minutes, and then incubated without shaking for a further 10 minutes at room temperature. 150 μl of cell lysate was removed from each well and dispensed into a single well of a white opaque 96 well plate. Luminescence at 545 nm was read using a BMG CLARIOstar plate reader. The luminescent signal was directly proportional to number of viable cells, the percent of viable cells relative to the DMSO control was then calculated for each assay point. Percent viability relative to DMSO control was plotted against compound concentration and a curve fitted with non-linear regression in GraphPad Prism software. EC50 and IC50 values were calculated using GraphPad Prism software as follows: For EC50 values a non-constrained four-parameter logistic curve fit was used (Sigmoidal, 4PL, X is concentration). For Absolute IC50 values the baseline was constrained to Y=0 (Absolute IC50, X is concentration). Area Under the Curve (AUC): Prism computes area-under-the-curve by the trapezoidal method. The analysis sees a fitted curve as simply a series of connected XY points. Prism simply computes the area under the “curve” defined by connecting the points by straight lines. The units of the AUC are the units of the Y axis times units of the X axis.

Mero82 cells = test: Mero82 proliferation and cell viability assay (CTG); type: cell-based; settings: Mero82 cell line, 144 hours
Protocol: Mero 82 cells were trypsinised, counted and plated at 400 cells/well in 200 μl of growth media in 96 well flat bottom tissue culture treated plates. The plated cells were incubated overnight at 37° C., 5% CO2 before being treated with compounds in triplicate for each assay point. 50 μl of the serially diluted compound was added to each well giving a final DMSO concentration of 0.5% per well and a total volume of 250 μl per well. The treated cells were incubated for 144 hours (6 days) at 37° C., 5% CO2. Following compound treatment, the remaining viable cells were detected using the Promega CellTiter-Glo 2.0 assay as follows: 150 μl of media was removed from each of the wells to be assayed and 100 μl of room temperature CellTiter-Glo 2.0 reagent was added. The plate was placed on an orbital shaker at 500 rpm at room temperature for 2 minutes, and then incubated without shaking for a further 10 minutes at room temperature. 150 μl of cell lysate was removed from each well and dispensed into a single well of a white opaque 96 well plate. Luminescence at 545 nm was read using a BMG CLARIOstar plate reader. The luminescent signal was directly proportional to number of viable cells, the percent of viable cells relative to the DMSO control was then calculated for each assay point. Percent viability relative to DMSO control is plotted against compound concentration and a curve fitted with non-linear regression in GraphPad Prism software. IC50 values were calculated using GraphPad Prism software as follows: For Relative IC50 values a non-constrained four-parameter logistic curve fit was used (Sigmoidal, 4PL, X is concentration). For Absolute IC50 values the baseline was constrained to Y=0 (Absolute IC50, X is concentration). Area Under the Curve (AUC): Prism computes area-under-the-curve by the trapezoidal method. The analysis sees a fitted curve as simply a series of connected XY points. Prism simply computes the area under the “curve” defined by connecting the points by straight lines. The units of the AUC are the units of the Y axis times units of the X axis.

[1] = ratio of protein to compound 1:1
[2] = ratio of protein to compound 1:3

Chain of TEAD2 (Q15562 whole entry): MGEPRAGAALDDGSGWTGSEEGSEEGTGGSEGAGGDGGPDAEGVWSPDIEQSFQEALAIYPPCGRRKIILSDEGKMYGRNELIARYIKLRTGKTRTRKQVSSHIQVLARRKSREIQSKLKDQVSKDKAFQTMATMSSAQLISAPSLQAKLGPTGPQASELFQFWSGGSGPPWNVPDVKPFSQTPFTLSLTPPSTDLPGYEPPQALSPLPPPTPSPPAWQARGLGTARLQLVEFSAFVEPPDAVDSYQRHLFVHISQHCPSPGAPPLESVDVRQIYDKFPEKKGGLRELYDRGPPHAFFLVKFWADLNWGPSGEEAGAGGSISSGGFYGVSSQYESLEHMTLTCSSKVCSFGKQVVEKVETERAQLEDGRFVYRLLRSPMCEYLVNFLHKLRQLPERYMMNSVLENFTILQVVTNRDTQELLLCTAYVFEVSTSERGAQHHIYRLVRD

Row | SMILES | TEAD2 ΔTm (TEAD2; [1]) | TEAD2 ΔTm (TEAD2; [2]) | TEAD1 ΔTm (TEAD1; [1]) | TEAD1 ΔTm (TEAD1; [2]) | TEAD3 ΔTm (TEAD3; [1]) | TEAD3 ΔTm (TEAD3; [2]) | TEAD4 ΔTm (TEAD4; [1]) | TEAD4 ΔTm (TEAD4; [2]) | EC50 (LOU-NH91 cells) | EC50 (Mero82 cells)
1 | C[C@H](NC(=O)c1cnc2c(C3=CC[C@@H](C(F)(F)F)CC3)cccc2c1)c1ncco1 (single isomer, unassigned) [Compound 19, N-(1-(oxazol-2-yl)ethyl)-8-(4-(trifluoromethyl)cyclohex-1-en-1-yl)quinoline-3-carboxamide] | 2 °C | 3 °C | 12 °C | 12 °C | 2 °C | 4 °C | 2 °C | 3 °C | < 200 nM | < 200 nM
2 | C[C@H](NC(=O)c1cnc2c(C3=CC[C@@H](C(F)(F)F)CC3)cccc2c1)c1ncco1 (single isomer, unassigned) [Compound 20, N-(1-(oxazol-2-yl)ethyl)-8-(4-(trifluoromethyl)cyclohex-1-en-1-yl)quinoline-3-carboxamide] | 1 °C | 3 °C | 10 °C | 13 °C | 2 °C | 4.5 °C | 1.5 °C | 3 °C | < 200 nM | –
3 | FC(F)(F)c1ccc(CN2CCC(C3CC(Br)=NO3)CC2)cc1 (stereo not shown) [Compound 1-2, reference compound] | – | – | – | – | – | – | – | – | < 200 nM | > 1000 nM
4 | C=CC(=O)Nc1ccc(C)c(Oc2ccc(Cl)cc2)c1 [Compound 1-3, reference compound] | – | – | – | – | – | – | – | – | < 200 nM | < 200 nM
5 | C[C@H](NC(=O)c1cnc2c(C3=CCC(C(F)(F)F)CC3)cccc2c1)c1ccccn1 (stereo partly drawn) [Compound 2, N—((S)-1-(pyridin-2-yl)ethyl)-8-(4-(trifluoromethyl)cyclohex-1-en-1-yl)quinoline-3-carboxamide] | 1 °C | 1.5 °C | 10 °C | 12 °C | 2 °C | 3 °C | 2 °C | 4 °C | – | –
6 | C[C@H](CO)NC(=O)c1cnc2c(C3=CCC(C(F)(F)F)CC3)cccc2c1 (stereo partly drawn) [Compound 7, N—((R)-1-hydroxypropan-2-yl)-8-(4-(trifluoromethyl)cyclohex-1-en-1-yl)quinoline-3-carboxamide] | 2 °C | 3 °C | 9 °C | 11 °C | 2 °C | 2 °C | 1.5 °C | 3 °C | < 200 nM | < 200 nM
7 | O=C(NCc1ncco1)c1cnc2c(C3=CCC(C(F)(F)F)CC3)cccc2c1 (stereo not shown) [Compound 11, N-(oxazol-2-ylmethyl)-8-(4-(trifluoromethyl)cyclohex-1-en-1-yl)quinoline-3-carboxamide] | 3 °C | 3 °C | 11 °C | 11.5 °C | 3.5 °C | 3 °C | 1.5 °C | 2.5 °C | – | < 200 nM
8 | O=C(NCc1ccn[nH]1)c1cnc2c(C3=CCC(C(F)(F)F)CC3)cccc2c1 (stereo not shown) [Compound 47, N-((1H-pyrazol-5-yl)methyl)-8-(4-(trifluoromethyl)cyclohex-1-en-1-yl)quinoline-3-carboxamide] | 2 °C | 2 °C | 9 °C | 11 °C | 2 °C | 3 °C | 3 °C | 3 °C | < 200 nM | < 200 nM
9 | COC[C@H](CO)NC(=O)c1cnc2c(C3=CCC(C(F)(F)F)CC3)cccc2c1 (stereo partly drawn) [Compound 62, N—((S)-1-hydroxy-3-methoxypropan-2-yl)-8-(4-(trifluoromethyl)cyclohex-1-en-1-yl)quinoline-3-carboxamide] | 3 °C | 3 °C | 9 °C | 11 °C | 1 °C | 2 °C | 2 °C | 3 °C | < 200 nM | < 200 nM
10 | COc1cc(C2=CCC(C(F)(F)F)CC2)c2ncc(C(=O)N[C@H](C)c3ncco3)cc2c1 (stereo partly drawn) [Compound 109, 6-methoxy-N—((R)-1-(oxazol-2-yl)ethyl)-8-(4-(trifluoromethyl)cyclohex-1-en-1-yl)quinoline-3-carboxamide] | 3 °C | 2 °C | 13 °C | 14 °C | 2 °C | 3 °C | 1 °C | 2 °C | < 200 nM | < 200 nM
11 | COc1cc(C2=CCC(C(F)(F)F)CC2)c2ncc(C(=O)N[C@H](C)CO)cc2c1 (stereo partly drawn) [Compound 110, N—((R)-1-hydroxypropan-2-yl)-6-methoxy-8-(4-(trifluoromethyl)cyclohex-1-en-1-yl)quinoline-3-carboxamide] | 2 °C | 3 °C | 14 °C | 16 °C | 2 °C | 3 °C | 2 °C | 3 °C | – | < 200 nM
12 | C[C@H](CO)NC(=O)c1cnc2c(C3=CCC4(CC3)CC(F)(F)C4)cccc2c1 [Compound 165, (R)-8-(2,2-difluorospiro[3.5]non-6-en-7-yl)-N-(1-hydroxypropan-2-yl)quinoline-3-carboxamide] | – | – | – | – | – | – | – | – | – | < 200 nM
13 | C[C@@H](NC(=O)c1cnc2c(C3=CCC4(CC3)CC4)cccc2c1)c1ncco1 [Compound 166, (R)—N-(1-(oxazol-2-yl)ethyl)-8-(spiro[2.5]oct-5-en-6-yl)quinoline-3-carboxamide] | – | – | – | – | – | – | – | – | – | < 200 nM
